PMC11318023, “Discovery of VU6008677: A Structurally Distinct Tricyclic M4 Positive Allosteric Modulator with Improved CYP450 Profile” (ACS Medicinal Chemistry Letters, 2024)
Like-named read-outs stand apart in the source and are kept apart here.

What was measured:
human M4 (hM4) = target: T1, human M4 (hM4) (Homo sapiens, UniProt P08173); experiment: Calcium mobilization assay, hM4/Gqi5-CHO cells, with EC20 acetylcholine (PAM); details: for hM4 pEC50 / hM4 %ACh Max / EC50: hM4/Gqi5-CHO cells; for hM4 %ACh Max: maximum response; for EC50: read-out: hM4 EC50
T1 sequence (P08173 1-479): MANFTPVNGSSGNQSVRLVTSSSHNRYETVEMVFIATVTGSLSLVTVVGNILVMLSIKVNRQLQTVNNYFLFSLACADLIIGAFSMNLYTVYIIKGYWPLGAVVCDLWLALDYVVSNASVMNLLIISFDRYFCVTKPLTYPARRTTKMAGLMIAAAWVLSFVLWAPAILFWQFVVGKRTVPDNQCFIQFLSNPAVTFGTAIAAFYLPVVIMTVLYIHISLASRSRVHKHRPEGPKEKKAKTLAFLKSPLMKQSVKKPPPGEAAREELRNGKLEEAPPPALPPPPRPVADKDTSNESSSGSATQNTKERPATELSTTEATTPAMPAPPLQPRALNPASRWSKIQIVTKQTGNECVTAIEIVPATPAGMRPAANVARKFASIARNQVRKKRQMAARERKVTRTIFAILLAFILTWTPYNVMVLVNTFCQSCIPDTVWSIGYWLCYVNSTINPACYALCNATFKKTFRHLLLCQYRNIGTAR

CYP 2C9 = CYP 2C9 (Homo sapiens, UniProt P11712); experiment: CYP450 inhibition in pooled human liver microsomes, CYP-specific probe substrates; format: in vitro ADME; details: pooled HLM, NADPH, CYP-specific probe substrate
[1] = Intrinsic clearance in human liver microsomes (substrate depletion), predicted hepatic clearance; format: in vitro ADME; details: for CLint scaled at 1 µM: pH 7.4, human liver microsomes; for CLhep, human (predicted hepatic clearance): predicted from human microsomal CLint
[2] = Binding in brain homogenate from rat, equilibrium dialysis; format: in vitro ADME; details: rat brain homogenates; for fraction unbound at 6 h, 1 µM: rat, brain homogenate, read-out: rat fu,brain
human M2 (hM2) = target: T2, human M2 (hM2) (Homo sapiens, UniProt P08172); experiment: Calcium mobilization assay, hM2/Gqi5-CHO cells, with EC20 acetylcholine; format: cell-based
T2 construct: expressed in transfected cells
T2 sequence (P08172 1-466): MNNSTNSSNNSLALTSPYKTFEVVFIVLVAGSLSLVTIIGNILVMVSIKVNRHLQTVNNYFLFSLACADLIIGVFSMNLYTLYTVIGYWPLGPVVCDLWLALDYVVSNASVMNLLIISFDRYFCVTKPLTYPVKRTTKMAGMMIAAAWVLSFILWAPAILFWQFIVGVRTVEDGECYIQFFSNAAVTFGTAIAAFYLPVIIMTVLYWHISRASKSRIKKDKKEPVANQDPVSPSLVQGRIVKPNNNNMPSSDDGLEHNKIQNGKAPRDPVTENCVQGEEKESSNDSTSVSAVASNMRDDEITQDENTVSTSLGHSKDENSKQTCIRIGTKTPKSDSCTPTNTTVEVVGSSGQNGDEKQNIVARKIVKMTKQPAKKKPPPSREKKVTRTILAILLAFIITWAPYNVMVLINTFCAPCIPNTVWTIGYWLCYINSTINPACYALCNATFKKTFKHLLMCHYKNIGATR
Description: buffer remained in the cell plates. […] After establishment of a […]

[3] = Intrinsic clearance in rat liver microsomes (substrate depletion), predicted hepatic clearance; format: in vitro ADME; details: for CLint scaled at 1 µM: pH 7.4, rat liver microsomes; for CLhep, rat (predicted hepatic clearance): predicted from rat microsomal CLint
CYP 3A4 = CYP 3A4 (Homo sapiens, UniProt P08684); experiment: CYP450 inhibition in pooled human liver microsomes, CYP-specific probe substrates; format: in vitro ADME; details: pooled HLM, NADPH, CYP-specific probe substrate
[4] = Binding in plasma from rat, equilibrium dialysis; format: in vitro ADME; details: read-out: rat fu,plasma
CYP 1A2 = target: T3, CYP 1A2 (Homo sapiens, UniProt P05177); experiment: CYP450 inhibition in pooled human liver microsomes, CYP-specific probe substrates; format: in vitro ADME; details: for IC50: pooled HLM, NADPH, CYP-specific probe substrate
T3 sequence (P05177 1-516): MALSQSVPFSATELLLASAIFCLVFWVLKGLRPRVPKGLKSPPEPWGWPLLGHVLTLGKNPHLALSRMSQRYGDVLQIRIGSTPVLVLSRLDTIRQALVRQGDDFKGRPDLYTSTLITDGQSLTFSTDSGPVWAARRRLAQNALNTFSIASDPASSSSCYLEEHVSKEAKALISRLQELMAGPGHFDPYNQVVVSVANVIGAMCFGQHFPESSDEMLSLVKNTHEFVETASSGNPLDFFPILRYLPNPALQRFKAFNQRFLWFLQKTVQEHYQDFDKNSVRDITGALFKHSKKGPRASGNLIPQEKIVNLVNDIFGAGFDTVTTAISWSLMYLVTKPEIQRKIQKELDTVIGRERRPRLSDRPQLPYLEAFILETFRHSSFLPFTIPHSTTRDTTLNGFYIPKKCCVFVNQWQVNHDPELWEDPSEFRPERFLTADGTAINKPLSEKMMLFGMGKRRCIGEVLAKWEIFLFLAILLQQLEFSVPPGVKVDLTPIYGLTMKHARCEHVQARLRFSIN

CYP 2D6 = CYP 2D6 (Homo sapiens, UniProt P10635); experiment: as above; format: in vitro ADME; details: pooled HLM, NADPH, CYP-specific probe substrate
[5] = Binding in plasma from human, equilibrium dialysis; format: in vitro ADME; details: for fraction unbound at 6 h, 5 µM: human, plasma, read-out: human fu,plasma
[6] = calcium mobilization, EC20 acetylcholine
[7] = calcium mobilization, EC20 fixed concentration of acetylcholine

CYP 2D6, sequence (P10635 whole entry): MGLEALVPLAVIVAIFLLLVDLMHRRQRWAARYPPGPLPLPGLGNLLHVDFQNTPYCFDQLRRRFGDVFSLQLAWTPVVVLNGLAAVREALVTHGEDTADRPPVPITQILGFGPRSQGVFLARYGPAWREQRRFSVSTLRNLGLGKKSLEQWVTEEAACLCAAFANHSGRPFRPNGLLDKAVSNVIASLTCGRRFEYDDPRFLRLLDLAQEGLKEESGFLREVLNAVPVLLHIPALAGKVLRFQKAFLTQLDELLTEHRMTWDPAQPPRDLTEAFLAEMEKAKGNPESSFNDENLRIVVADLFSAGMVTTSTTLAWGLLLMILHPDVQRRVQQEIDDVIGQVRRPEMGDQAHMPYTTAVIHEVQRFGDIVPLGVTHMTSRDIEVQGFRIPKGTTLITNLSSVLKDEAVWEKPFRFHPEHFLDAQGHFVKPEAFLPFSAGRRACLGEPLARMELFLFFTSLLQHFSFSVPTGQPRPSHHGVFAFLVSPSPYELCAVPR
CYP 2C9, sequence (P11712 whole entry): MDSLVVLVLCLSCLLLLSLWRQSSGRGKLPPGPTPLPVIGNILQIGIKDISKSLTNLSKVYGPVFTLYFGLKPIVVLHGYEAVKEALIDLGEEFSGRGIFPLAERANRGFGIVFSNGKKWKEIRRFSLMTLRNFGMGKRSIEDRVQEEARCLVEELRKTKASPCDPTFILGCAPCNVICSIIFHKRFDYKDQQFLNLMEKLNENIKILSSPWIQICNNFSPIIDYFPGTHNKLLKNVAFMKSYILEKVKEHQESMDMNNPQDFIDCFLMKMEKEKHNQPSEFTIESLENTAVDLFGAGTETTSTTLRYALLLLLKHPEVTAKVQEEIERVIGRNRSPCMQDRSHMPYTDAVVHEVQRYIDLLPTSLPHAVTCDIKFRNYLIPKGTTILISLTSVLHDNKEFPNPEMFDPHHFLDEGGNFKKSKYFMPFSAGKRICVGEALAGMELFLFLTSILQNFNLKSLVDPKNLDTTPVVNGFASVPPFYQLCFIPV
CYP 3A4, sequence (P08684 whole entry): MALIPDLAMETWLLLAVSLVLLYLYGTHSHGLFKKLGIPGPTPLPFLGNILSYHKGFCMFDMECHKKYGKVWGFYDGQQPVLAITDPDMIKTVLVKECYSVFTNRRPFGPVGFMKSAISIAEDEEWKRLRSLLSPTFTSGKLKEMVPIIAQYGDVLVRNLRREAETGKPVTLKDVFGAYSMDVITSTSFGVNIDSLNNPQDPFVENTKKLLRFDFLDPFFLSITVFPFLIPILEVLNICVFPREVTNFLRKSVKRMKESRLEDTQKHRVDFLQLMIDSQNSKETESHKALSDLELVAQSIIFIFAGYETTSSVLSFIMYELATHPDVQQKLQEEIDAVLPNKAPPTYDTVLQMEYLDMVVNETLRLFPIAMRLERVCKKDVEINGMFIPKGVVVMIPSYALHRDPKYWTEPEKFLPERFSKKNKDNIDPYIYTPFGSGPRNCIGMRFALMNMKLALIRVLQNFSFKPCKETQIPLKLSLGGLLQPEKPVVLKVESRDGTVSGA

Structure (SMILES) | hM4 pEC50 (human M4 (hM4); [6]) | hM4 %ACh Max (human M4 (hM4); [6]) | EC50 (human M4 (hM4); [7]) | IC50 (CYP 2C9) | CLint scaled at 1 µM [1] | CLhep, human (predicted hepatic clearance) [1] | fraction unbound at 6 h, 1 µM [2] | CLint scaled at 1 µM [3] | CLhep, rat (predicted hepatic clearance) [3] | IC50 (CYP 3A4) | fraction unbound at 6 h, 5 µM [4] | IC50 (CYP 1A2) | IC50 (CYP 2D6) | fraction unbound at 6 h, 5 µM [5] | also measured
Cc1ncc(CNc2ncnc3c2sc2nc(C)c(Cl)c(C)c23)cn1.Cl [Compound 13b] | < 5.00 | 75% | > 10 µM | – | – | – | – | – | – | – | – | – | – | – | –
Cc1nc2sc3c(N4CC5(COC5)C4)ncnc3c2c(C)c1Cl.Cl [Compound 13d] | <5.00 | 71% | > 10 µM | – | – | – | – | – | – | – | – | – | – | – | EC50 (human M4 (hM4); as quoted in text in μM, EC20 acetylcholine): > 10 µM
Cc1nc2sc3c(NC4CC(c5ccncc5)C4)ncnc3c2c(C)c1Cl.Cl (stereo not drawn) [Compound 13h] | 5.82 | 84% | 1.5 µM | – | – | – | – | – | – | – | – | – | – | – | –
Cc1nc2sc3c(NC4CC4)ncnc3c2c(C)c1Cl.Cl [Compound 13l] | – | – | – | > 15800 nM | 78 mL/min/kg | 17 mL/min/kg | 0.001 to 0.005 | 423 mL/min/kg | 60 mL/min/kg | 15800 nM | ≤ 0.01 | < 100 nM | > 30000 nM | – | rat fu,brain ([2]; fraction unbound): 0.001; EC50 (human M2 (hM2)): 5000 nM; hM2 % ACh Max (human M2 (hM2)): 49%
COc1ccc(CNc2ncnc3c2oc2nc(C)c(Cl)c(C)c23)cc1F.Cl [Compound 14a] | <5.00 | 49% | > 10 µM | – | – | – | – | – | – | – | – | – | – | – | –
Cc1nc2oc3c(NCc4ccc(C(C)(C)O)cc4)ncnc3c2c(C)c1Cl [Compound 14c] | 5.93 | 62% | 1.2 µM | – | – | – | – | – | – | – | – | – | – | – | –
Cc1nc2oc3c(N(C)C)ncnc3c2c(C)c1Cl.Cl [Compound 14e] | 5.86 | – | 1.4 µM | – | – | – | – | – | – | – | – | – | – | – | –
Cc1nc2oc3c(NC4CC4)ncnc3c2c(C)c1Cl.Cl [Compound 14o] | – | – | – | ≥ 30000 nM | 37 mL/min/kg | 13 mL/min/kg | 0.017 | 175 mL/min/kg | 50 mL/min/kg | ≥ 30000 nM | 0.06 | < 100 nM | ≥ 30000 nM | < 0.01 | human fu,plasma ([5]; fraction unbound): 0.007; hM2 EC50 (human M2 (hM2)): inactive
Cc1nc2oc3c(NC4CC4(C)C)ncnc3c2c(C)c1Cl.Cl (stereo not drawn) [Compound 14p] | – | – | – | > 30000 nM | 168 mL/min/kg | 19 mL/min/kg | 0.002 | 467 mL/min/kg | 61 mL/min/kg | > 30000 nM | 0.038 | 320 nM | > 30000 nM | 0.004 | EC50 (human M2 (hM2)): 2300 nM; hM2 % ACh Max (human M2 (hM2)): 39%
Cc1c(Cl)cnc2sc3c(N4CCCC4)ncnc3c12 [Compound 15a] | 5.22 | 45% | 6 µM | – | – | – | – | – | – | – | – | – | – | – | –
Cc1c(Cl)cnc2sc3c(NC4(C)CC4)ncnc3c12 [Compound 15b] | 6.39 | 51% | 0.4 µM | – | – | – | – | – | – | – | – | – | – | – | –
Cc1ncc(CNc2ncnc3c2sc2ncc(Cl)c(C)c23)cn1.Cl [Compound 15c] | 6.34 | 71% | 0.45 µM | – | – | – | – | – | – | – | – | – | – | – | –
Cc1c(Cl)cnc2sc3c(NCc4ccncc4)ncnc3c12 [Compound 15d] | 6.50 | 84% | 0.32 µM | – | – | – | – | – | – | – | – | – | – | – | –
Cc1c(Cl)cnc2sc3c(NC4CC(c5ccncc5)C4)ncnc3c12 (stereo not drawn) [Compound 15e] | 7.09 | 65% | 0.081 µM | 9100 nM | 79 mL/min/kg | 17 mL/min/kg | – | 316 mL/min/kg | 57 mL/min/kg | > 30000 nM | ≤ 0.01 | 1500 nM | 330 nM | ≤ 0.01 | hM2 EC50 (human M2 (hM2)): inactive
Cc1c(Cl)cnc2sc3c(N4CC(C#N)C4)ncnc3c12 [Compound 15f] | – | – | – | > 30000 nM | 224 mL/min/kg | 19 mL/min/kg | 0.002 | 642 mL/min/kg | 63 mL/min/kg | > 30000 nM | 0.171 | 360 nM | > 30000 nM | 0.02 | hM2 EC50 (human M2 (hM2)): inactive; fold improvement of CYP 1A2 inhibition compared with ML253 (CYP 1A2; vs ML253): 3 fold
Cc1c(Cl)cnc2sc3c(N4CC5(COC5)C4)ncnc3c12 [Compound 15h] | – | – | – | > 30000 nM | 147 mL/min/kg | 18 mL/min/kg | 0.003 | 334 mL/min/kg | 58 mL/min/kg | > 30000 nM | 0.031 | 640 nM | > 30000 nM | 0.008 | hM2 EC50 (human M2 (hM2)): inactive
COc1ccc(CNc2nncc3c2sc2nc(C)c(Cl)c(C)c23)cc1F [Compound 22a] | 5.88 | 69% | 1.3 µM | – | – | – | – | – | – | – | – | – | – | – | –
Cc1nc2sc3c(N4CC5CC5C4)nncc3c2c(C)c1Cl.Cl (stereo not drawn) [Compound 22c] | 6.29 | 73% | 0.51 µM | – | – | – | – | – | – | – | – | – | – | – | –
Cc1nc2sc3c(NCc4ccc(OC(F)F)cc4)nncc3c2c(C)c1Cl [Compound 22e] | 6.27 | 41% | – | – | – | – | – | – | – | – | – | – | – | – | –
Cc1nc2sc3c(NCC4CCC4)nncc3c2c(C)c1Cl.Cl [Compound 22f] | 6.40 | – | – | – | – | – | – | – | – | – | – | – | – | – | fold loss (decrease) in hM4 potency (human M4 (hM4); relative to the comparator analogue (13g, 13k vs 13l; 22f vs 22j)): ~5 fold
COCCCNc1nncc2c1sc1nc(C)c(Cl)c(C)c12.Cl [Compound 22g] | 6.72 | 67% | 0.19 µM | – | – | – | – | – | – | – | – | – | – | – | –
Cc1nc2sc3c(NC4CCC4)nncc3c2c(C)c1Cl.Cl [Compound 22j] | – | – | – | > 30000 nM | 49 mL/min/kg | 15 mL/min/kg | 0.006 | 1280 mL/min/kg | 66 mL/min/kg | > 30000 nM | 0.026 | 520 nM | 19200 nM | 0.005 | EC50 (human M2 (hM2)): > 10000 nM; hM2 % ACh Max (human M2 (hM2)): 44%
Cc1nc2sc3c(NC4CC(F)(F)C4)nncc3c2c(C)c1Cl.Cl [Compound 22k] | – | – | – | > 30000 nM | 185 mL/min/kg | 19 mL/min/kg | 0.008 | 1670 mL/min/kg | 67 mL/min/kg | > 30000 nM | 0.057 | 980 nM | 25200 nM | 0.01 | EC50 (human M2 (hM2)): 260 nM; hM2 % ACh Max (human M2 (hM2)): 49%
